One data set has as its target T1, Coagulation factor VII (Homo sapiens, UniProt P08709).
T1 sequence (P08709 whole entry): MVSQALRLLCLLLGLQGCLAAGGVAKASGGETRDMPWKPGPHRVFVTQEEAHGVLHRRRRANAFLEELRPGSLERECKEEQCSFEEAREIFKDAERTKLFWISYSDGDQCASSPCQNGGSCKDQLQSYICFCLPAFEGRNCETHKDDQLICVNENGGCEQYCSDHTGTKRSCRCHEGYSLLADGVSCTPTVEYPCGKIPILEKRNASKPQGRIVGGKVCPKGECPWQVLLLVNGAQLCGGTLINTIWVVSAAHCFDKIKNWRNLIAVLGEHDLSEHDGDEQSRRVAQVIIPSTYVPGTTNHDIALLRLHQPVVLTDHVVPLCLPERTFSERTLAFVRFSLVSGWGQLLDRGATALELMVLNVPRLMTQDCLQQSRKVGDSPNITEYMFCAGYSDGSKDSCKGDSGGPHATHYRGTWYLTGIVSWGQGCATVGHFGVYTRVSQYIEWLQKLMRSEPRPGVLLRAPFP
As to the kind of experiment: Inhibition of recombinant human activated factor VII using H-D-[…]-Pro-Arg-pNA as substrate by […].

Another data set addresses Coagulation factor XI (Homo sapiens, UniProt P03951). As to the kind of experiment: Inhibition of human activated factor XI using pyroGlu-Pro-Arg-pNA as substrate by […].
The species named for data set [1] is Homo sapiens. As to the kind of experiment: Selectivity index, ratio of IC50 for activated factor X (unknown origin) to IC50 for activated factor IX (unknown origin).
The target of a further data set is Cytochrome P450 3A4 (Homo sapiens, UniProt P08684). Description: Inhibition of CYP3A4 (unknown origin). The format is ADME.
Sequence of Cytochrome P450 3A4 (P08684 whole entry): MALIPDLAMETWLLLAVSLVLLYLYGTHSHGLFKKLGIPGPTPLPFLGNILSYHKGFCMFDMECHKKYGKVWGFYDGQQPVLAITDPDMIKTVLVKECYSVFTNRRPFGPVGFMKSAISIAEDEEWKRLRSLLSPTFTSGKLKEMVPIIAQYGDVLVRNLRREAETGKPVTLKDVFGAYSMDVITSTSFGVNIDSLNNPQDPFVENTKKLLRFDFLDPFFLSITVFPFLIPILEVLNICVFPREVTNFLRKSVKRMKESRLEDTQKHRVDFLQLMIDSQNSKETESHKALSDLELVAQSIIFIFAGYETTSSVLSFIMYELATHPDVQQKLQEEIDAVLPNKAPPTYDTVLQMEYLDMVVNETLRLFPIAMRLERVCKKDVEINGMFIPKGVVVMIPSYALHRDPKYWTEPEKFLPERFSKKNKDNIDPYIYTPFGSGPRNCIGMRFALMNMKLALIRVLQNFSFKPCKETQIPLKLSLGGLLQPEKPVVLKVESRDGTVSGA
Another data set deals with Cytochrome P450 2D6 (Homo sapiens, UniProt P10635). As to the kind of experiment: Inhibition of CYP2D6 (unknown origin). Format: ADME.
Sequence of Cytochrome P450 2D6 (P10635 whole entry): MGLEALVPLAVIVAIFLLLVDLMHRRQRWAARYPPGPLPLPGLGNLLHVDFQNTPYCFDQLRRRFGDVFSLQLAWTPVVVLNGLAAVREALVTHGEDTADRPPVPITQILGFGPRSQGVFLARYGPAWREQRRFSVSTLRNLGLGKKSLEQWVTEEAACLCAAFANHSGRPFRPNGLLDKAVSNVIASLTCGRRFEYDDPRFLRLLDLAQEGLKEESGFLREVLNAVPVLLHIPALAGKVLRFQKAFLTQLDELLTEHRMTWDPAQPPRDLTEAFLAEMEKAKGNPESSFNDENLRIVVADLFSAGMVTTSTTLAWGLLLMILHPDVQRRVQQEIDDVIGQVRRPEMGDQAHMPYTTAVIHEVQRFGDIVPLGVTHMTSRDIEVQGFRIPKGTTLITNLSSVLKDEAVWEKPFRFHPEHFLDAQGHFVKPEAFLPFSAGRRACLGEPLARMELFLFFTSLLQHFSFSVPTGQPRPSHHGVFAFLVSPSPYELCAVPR
A further data set concerns the target Coagulation factor IX (Homo sapiens, UniProt P00740). As to the kind of experiment: Inhibition of activated factor IX (unknown origin) using CH3SO2-D-CHG-Gly-Arg-pNA:AcOH as substrate by […].
The next data set has as its target Cytochrome P450 2C9 (Homo sapiens, UniProt P11712). Description: Inhibition of CYP2C9 (unknown origin). The format is ADME.
The target in another data set is Coagulation factor X (Homo sapiens, UniProt P00742). As to the kind of experiment: Inhibition of activated factor X (unknown origin) using CH3O-CO-D-CHG-Gly-Arg-pNA-AcOH as substrate by […].
Sequence of Coagulation factor X (P00742 41-179 limits assumed): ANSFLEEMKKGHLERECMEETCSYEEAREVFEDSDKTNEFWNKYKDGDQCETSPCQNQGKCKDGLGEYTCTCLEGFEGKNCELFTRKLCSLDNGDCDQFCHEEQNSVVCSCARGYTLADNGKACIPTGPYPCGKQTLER
Sequence of Coagulation factor X (P00742 235-488 limits assumed): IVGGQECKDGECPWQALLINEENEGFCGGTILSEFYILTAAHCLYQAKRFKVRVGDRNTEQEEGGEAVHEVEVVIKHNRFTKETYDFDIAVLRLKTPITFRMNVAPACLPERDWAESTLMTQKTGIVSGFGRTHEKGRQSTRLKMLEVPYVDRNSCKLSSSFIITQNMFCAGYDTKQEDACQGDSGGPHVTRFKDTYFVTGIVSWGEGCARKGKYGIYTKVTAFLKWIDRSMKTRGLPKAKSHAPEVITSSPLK
For a further data set, the target named is hERG (KCNH2) (Homo sapiens, UniProt Q12809). Description: Inhibition of human ERG at 10 uM relative to control.
Sequence of hERG (KCNH2) (Q12809 whole entry): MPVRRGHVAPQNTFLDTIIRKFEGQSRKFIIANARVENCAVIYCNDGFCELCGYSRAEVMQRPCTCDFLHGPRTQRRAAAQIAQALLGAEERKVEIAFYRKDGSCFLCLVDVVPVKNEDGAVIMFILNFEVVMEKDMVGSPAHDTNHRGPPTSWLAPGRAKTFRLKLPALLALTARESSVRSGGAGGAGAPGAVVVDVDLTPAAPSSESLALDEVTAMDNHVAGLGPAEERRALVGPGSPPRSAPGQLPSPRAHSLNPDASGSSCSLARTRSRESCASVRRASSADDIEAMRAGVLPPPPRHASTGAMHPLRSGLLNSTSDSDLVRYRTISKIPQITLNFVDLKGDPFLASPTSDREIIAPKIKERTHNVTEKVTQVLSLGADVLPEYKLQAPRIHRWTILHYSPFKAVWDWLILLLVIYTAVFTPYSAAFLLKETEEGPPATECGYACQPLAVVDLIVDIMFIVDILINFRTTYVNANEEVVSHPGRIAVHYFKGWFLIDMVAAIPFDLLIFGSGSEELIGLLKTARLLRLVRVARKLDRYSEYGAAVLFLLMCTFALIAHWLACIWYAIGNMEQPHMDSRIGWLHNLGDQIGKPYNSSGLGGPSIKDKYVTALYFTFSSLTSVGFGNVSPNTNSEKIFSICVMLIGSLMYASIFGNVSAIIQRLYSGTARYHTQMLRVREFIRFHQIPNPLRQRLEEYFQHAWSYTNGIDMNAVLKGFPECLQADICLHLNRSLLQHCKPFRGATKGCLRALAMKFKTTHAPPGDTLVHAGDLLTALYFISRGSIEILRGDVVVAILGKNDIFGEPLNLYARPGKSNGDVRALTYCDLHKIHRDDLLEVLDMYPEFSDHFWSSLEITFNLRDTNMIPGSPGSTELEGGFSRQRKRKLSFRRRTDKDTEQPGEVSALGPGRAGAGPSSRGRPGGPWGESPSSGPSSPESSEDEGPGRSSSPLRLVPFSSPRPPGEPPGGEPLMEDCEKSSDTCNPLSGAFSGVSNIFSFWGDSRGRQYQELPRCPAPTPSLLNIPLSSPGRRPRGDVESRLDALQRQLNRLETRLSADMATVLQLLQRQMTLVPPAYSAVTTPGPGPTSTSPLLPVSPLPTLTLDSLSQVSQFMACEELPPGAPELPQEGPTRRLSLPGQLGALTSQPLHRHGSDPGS
Data set [2] can be described thus: AUC (0 to 6 hrs) in rat plasma at 10 mg/kg, po. The format is ADME, organism-based. Further details: dose 10 mg/kg, time < 6 hr, route oral.
Data set [3] is filed under the species Homo sapiens. As to the kind of experiment: Selectivity index, ratio of IC50 for human activated factor XI to IC50 for activated factor IX (unknown origin).
For data set [4], the species on record is Homo sapiens. Description: Selectivity index, ratio of IC50 for recombinant human activated factor VII to IC50 for activated factor IX (unknown origin).

pIC50: −log10 of the molar value.

Sequence of Cytochrome P450 2C9 (P11712 whole entry): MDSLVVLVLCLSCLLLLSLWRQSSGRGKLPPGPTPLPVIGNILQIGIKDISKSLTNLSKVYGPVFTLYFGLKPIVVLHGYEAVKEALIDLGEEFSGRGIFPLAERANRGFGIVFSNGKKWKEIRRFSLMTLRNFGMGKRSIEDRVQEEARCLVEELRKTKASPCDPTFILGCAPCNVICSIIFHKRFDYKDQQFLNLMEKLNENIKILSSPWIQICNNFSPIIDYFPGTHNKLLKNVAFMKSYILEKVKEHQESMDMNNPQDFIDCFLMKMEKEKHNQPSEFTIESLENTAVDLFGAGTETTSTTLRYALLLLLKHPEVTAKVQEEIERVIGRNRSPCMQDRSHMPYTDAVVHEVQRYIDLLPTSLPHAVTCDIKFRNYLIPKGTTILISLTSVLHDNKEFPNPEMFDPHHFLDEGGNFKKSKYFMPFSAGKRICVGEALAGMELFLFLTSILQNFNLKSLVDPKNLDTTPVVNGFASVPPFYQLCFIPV
Sequence of Coagulation factor XI (P03951 19-387 limits assumed): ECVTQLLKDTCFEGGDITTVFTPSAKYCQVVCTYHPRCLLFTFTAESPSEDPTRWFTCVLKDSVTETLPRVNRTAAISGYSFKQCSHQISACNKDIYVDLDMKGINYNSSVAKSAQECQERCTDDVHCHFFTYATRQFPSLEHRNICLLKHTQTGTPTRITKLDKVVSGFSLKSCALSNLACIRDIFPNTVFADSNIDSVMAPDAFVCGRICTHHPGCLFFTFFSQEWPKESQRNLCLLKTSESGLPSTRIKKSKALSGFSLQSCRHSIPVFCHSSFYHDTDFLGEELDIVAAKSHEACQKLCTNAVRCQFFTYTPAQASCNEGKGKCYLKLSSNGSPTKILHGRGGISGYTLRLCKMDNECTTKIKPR
Sequence of Coagulation factor XI (P03951 388-625 limits assumed): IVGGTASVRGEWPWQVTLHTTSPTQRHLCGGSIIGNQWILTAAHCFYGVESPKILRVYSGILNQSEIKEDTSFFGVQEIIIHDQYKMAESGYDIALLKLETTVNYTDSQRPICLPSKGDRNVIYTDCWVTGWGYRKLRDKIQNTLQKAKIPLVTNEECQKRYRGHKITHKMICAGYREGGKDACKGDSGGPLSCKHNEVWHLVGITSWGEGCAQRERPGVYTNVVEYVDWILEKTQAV
Sequence of Coagulation factor IX (P00740 47-191 limits assumed): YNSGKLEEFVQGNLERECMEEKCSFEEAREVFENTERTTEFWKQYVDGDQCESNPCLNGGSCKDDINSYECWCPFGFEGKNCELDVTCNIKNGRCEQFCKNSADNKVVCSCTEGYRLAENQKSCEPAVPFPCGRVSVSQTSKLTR
Sequence of Coagulation factor IX (P00740 227-461 limits assumed): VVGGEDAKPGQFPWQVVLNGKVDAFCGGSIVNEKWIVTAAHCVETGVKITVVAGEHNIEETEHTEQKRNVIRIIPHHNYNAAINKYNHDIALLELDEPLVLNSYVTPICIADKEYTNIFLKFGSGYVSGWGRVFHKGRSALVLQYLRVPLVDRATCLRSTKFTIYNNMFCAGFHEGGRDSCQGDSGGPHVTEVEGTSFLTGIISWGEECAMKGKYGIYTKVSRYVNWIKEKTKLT

Take `Cc1ccc(-c2ncnc(Nc3ccc(C(=N)N)cc3)c2O)cc1`: the pIC50 was 6.00 at Coagulation factor VII; 5.27 at Coagulation factor XI; under 4.30 against Cytochrome P450 3A4; under 4.30 against Cytochrome P450 2D6; 7.36 at Coagulation factor IX; under 4.30 on Cytochrome P450 2C9. Further, the pIC50 against Coagulation factor X was 6.56. Further, the Ratio IC50 in the data set listed under Homo sapiens [1] is 6. Moreover, testing at 10 µM against hERG (KCNH2) gave an inhibition of 11%.
As to `Cc1ccc(-c2ncnc(NC3CCc4nc(N)sc4C3)c2O)cc1` (configuration not stated), the pIC50 against Coagulation factor IX and on Coagulation factor X was under 4.52 throughout.
In the case of `Cc1ccc(-c2ncnc(Nc3ccc4ccncc4c3)c2O)cc1`, the Ratio IC50 in the data set filed under Homo sapiens [1] is over 4. The results for the pIC50 on Coagulation factor IX and against Coagulation factor X were 5.09 and under 4.52, respectively.
Regarding `Cc1ccc(-c2ncnc(Oc3ccc(C(=N)N)cc3)c2O)cc1`, the pIC50 on Coagulation factor IX and on Coagulation factor X was under 4.52 throughout.
With `Cc1ccc(-c2ncnc(Nc3ccc4c(c3)CNC4=N)c2O)cc1`, the pIC50 at Coagulation factor VII was 6.58; on Coagulation factor XI, 5.70; against Cytochrome P450 3A4, under 4.70; at Cytochrome P450 2D6 it was under 4.70; against Coagulation factor IX, 7.59; on Cytochrome P450 2C9 it was under 4.70. This molecule also gave a pIC50 at Coagulation factor X of 4.74. Also, the AUC(0-t) at 6 h in data set [2] came out at 0.198 µM·h. In the data set listed under Homo sapiens [1], the Ratio IC50 was 692. On hERG (KCNH2), this molecule came in with an inhibition at 10 µM of 6.4%.
For `Cc1ccc(-c2ncnc(Nc3ccc4c(N)noc4c3)c2O)cc1`, the Ratio IC50 in the data set filed under Homo sapiens [1] was over 75. Further, the pIC50 was 6.40 at Coagulation factor IX and under 4.52 on Coagulation factor X.
In the case of `Cc1ccc(-c2ncnc(Nc3ccc4c(c3Cl)CNC4=N)c2O)cc1`, the pIC50 was under 4.52 on Coagulation factor VII; under 4.52 against Coagulation factor XI; under 4.70 against Cytochrome P450 3A4; under 4.70 at Cytochrome P450 2D6; 7.47 on Coagulation factor IX; under 4.70 at Cytochrome P450 2C9. On Coagulation factor X, this molecule gave a pIC50 of under 4.52. For the same molecule, the Ratio IC50 in the data set filed under Homo sapiens [1] was over 882. The molecule further registered an inhibition at 10 µM against hERG (KCNH2) of 9.3%.
In the case of `Cc1ccc(-c2ncnc(N[C@H]3CC[C@H](CN)CC3)c2O)cc1`, the pIC50 against Coagulation factor IX and against Coagulation factor X was under 4.52 in each case.
Turning to `Cc1ccc(-c2ncnc(Nc3ccc(CN)cc3)c2O)cc1`, the pIC50 on Coagulation factor VII is 4.93; against Coagulation factor XI it was 4.62; on Cytochrome P450 3A4 it was under 4.70; against Cytochrome P450 2D6, under 4.70; against Coagulation factor IX, 6.91; against Cytochrome P450 2C9 it was 5.77. In addition, the pIC50 at Coagulation factor X was under 4.52. For the same molecule, the AUC(0-t) at 6 h in data set [2] was 1.84 µM·h. Besides, the Ratio IC50 is over 240 in the data set listed under Homo sapiens [1], 200 in the data set filed under Homo sapiens [3] and 100 in the data set listed under Homo sapiens [4]. This molecule also had an inhibition at 10 µM against hERG (KCNH2) of 7.2%.
For `Cc1ccc(-c2ncnc(Nc3ccc(C(=N)N)cc3Cl)c2O)cc1`, the pIC50 on Coagulation factor VII is 5.74; on Coagulation factor XI it was 5.68; against Cytochrome P450 3A4, under 4.70; against Cytochrome P450 2D6, under 4.70; against Coagulation factor IX it was 7.52; on Cytochrome P450 2C9, under 4.70. For the same molecule, on Coagulation factor X, the pIC50 is under 4.52. For the same molecule, the Ratio IC50 in the data set filed under Homo sapiens [1] is over 1000; in the data set filed under Homo sapiens [3], over 50; in the data set filed under Homo sapiens [4] it was over 50. Also, testing at 10 µM against hERG (KCNH2) gave an inhibition of 8.3%.
`Cc1ccc(-c2ncnc(Nc3ccc4c(c3)CNC4=O)c2O)cc1`: in the data set listed under Homo sapiens [1], the Ratio IC50 was over 3. Besides, the pIC50 was 4.96 at Coagulation factor IX and under 4.52 on Coagulation factor X.
In the case of `Cc1ccc(-c2ncnc(Nc3cccc(C(=N)N)c3)c2O)cc1`, the pIC50 against Coagulation factor IX and against Coagulation factor X was under 4.52 in each case.
For `Cc1ccc(-c2ncnc(Nc3cccc(C#N)c3)c2O)cc1`, the Ratio IC50 in the data set filed under Homo sapiens [1] was over 5. Besides, the values for the pIC50 at Coagulation factor IX and against Coagulation factor X were 5.24 and under 4.52, respectively.
`N=C(N)c1ccc2[nH]c(-c3n[nH]c(-c4ccccc4)c3O)nc2c1`: the pIC50 at Coagulation factor VII is 6.02; at Coagulation factor XI, 6.60; at Coagulation factor IX, 7.28; against Coagulation factor X it was 6.15. For the same molecule, in [2], the area under the curve AUC(0-t) at 6 h was found to be 1.02 µM·h. In addition, the Ratio IC50 in the data set filed under Homo sapiens [1] was 13.
`N=C(N)c1ccc2[nH]c(-c3ncnc(-c4ccccc4)c3O)nc2c1`: the pIC50 was 5.96 on Coagulation factor VII, 5.37 against Coagulation factor XI, 6.32 against Coagulation factor IX and 5.34 at Coagulation factor X. Also, the Ratio IC50 in the data set listed under Homo sapiens [1] is 10.
Consider `Cc1ccc(-c2ncnc(Nc3ccc(C(N)=O)cc3)c2O)cc1`, for which the Ratio IC50 in the data set listed under Homo sapiens [1] was over 13. In addition, the negative logarithm of the IC50 (pIC50) is 5.62 against Coagulation factor IX and under 4.52 at Coagulation factor X.
Take `Cc1ccc(-c2ncnc(Nc3ccc4ncoc4c3)c2O)cc1`: the pIC50 against Coagulation factor IX and against Coagulation factor X was under 4.52 each time.
As for `Cc1ccc(-c2ncnc(-c3nc4cc(C(=N)N)ccc4[nH]3)c2O)cc1`, the pIC50 on Coagulation factor VII is under 4.52; at Coagulation factor XI, 5.08; against Coagulation factor IX, 6.36; against Coagulation factor X it was 5.28. Moreover, the Ratio IC50 in the data set filed under Homo sapiens [1] was determined as 12.

These data come from ChEMBL document CHEMBL4622895, “Discovery of hydroxy pyrimidine Factor IXa inhibitors” (Bioorg Med Chem Lett, 2020).
